Source: PubChem BioAssay AID330 (DTP/NCI, 2004)
Where “and” joins values, the source holds several entries; their conditions need not be identical. Equal values may be shown once. Toxic doses and inconclusive results are not listed. Peptide text beside a SMILES is read from it. * marks the point of attachment. Cbz = O=C(OCc1ccccc1)*

Tested on: P388 leukemia ip, CD2F1 mice, survival T/C
Test: NCI In Vivo Anticancer Drug Screen. Data for tumor model P388 Leukemia (intraperitoneal) in CD2F1 (CDF1) mice
Conditions: endpoint: median survival time, higher = longer survival
In short: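 Mice carrying the transplanted tumor received test compound or vehicle. Survival was recorded in each group, and the value is the treated-group measurement divided by that of the vehicle-treated control group.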

[1] = dose: 60.0 mg/kg/injection, schedule: Q01DX005 (ip), vehicle: saline with Tween-80
[2] = dose: 120.0 mg/kg/injection, schedule: Q01DX005 (ip), vehicle: saline with Tween-80
[3] = dose: 240.0 mg/kg/injection, schedule: Q01DX005 (ip), vehicle: saline with Tween-80
[4] = dose: 50.0 mg/kg/injection, schedule: Q01DX009 (ip), vehicle: saline with Tween-80
[5] = dose: 100.0 mg/kg/injection, schedule: Q01DX009 (ip), vehicle: saline with Tween-80
[6] = dose: 200.0 mg/kg/injection, schedule: Q01DX009 (ip), vehicle: saline with Tween-80
[7] = dose: 50.0 mg/kg/injection, schedule: Q01DX009 (ip), vehicle: saline
[8] = dose: 100.0 mg/kg/injection, schedule: Q01DX009 (ip), vehicle: saline
[9] = dose: 200.0 mg/kg/injection, schedule: Q01DX009 (ip), vehicle: saline
[10] = dose: 6.25 mg/kg/injection, schedule: Q01DX005 (ip), vehicle: Klucel (hydroxypropylcellulose) (HPC)
[11] = dose: 12.5 mg/kg/injection, schedule: Q01DX005 (ip), vehicle: Klucel (hydroxypropylcellulose) (HPC)
[12] = dose: 25.0 mg/kg/injection, schedule: Q01DX009 (ip), vehicle: saline with Tween-80
[13] = dose: 50.0 mg/kg/injection, schedule: Q01DX005 (ip), vehicle: saline with Tween-80
[14] = dose: 100.0 mg/kg/injection, schedule: Q01DX005 (ip), vehicle: saline with Tween-80
[15] = dose: 200.0 mg/kg/injection, schedule: Q01DX005 (ip), vehicle: saline with Tween-80
[16] = dose: 50.0 mg/kg/injection, schedule: Q01DX009 (ip), vehicle: Klucel (hydroxypropylcellulose) (HPC)
[17] = dose: 100.0 mg/kg/injection, schedule: Q01DX009 (ip), vehicle: Klucel (hydroxypropylcellulose) (HPC)
[18] = dose: 200.0 mg/kg/injection, schedule: Q01DX009 (ip), vehicle: Klucel (hydroxypropylcellulose) (HPC)
[19] = dose: 6.25 mg/kg/injection, schedule: Q01DX009 (ip), vehicle: saline
[20] = dose: 50.0 mg/kg/injection, schedule: Q01DX005 (ip), vehicle: saline
[21] = dose: 100.0 mg/kg/injection, schedule: Q01DX005 (ip), vehicle: saline
[22] = dose: 25.0 mg/kg/injection, schedule: Q01DX009 (ip), vehicle: Klucel (hydroxypropylcellulose) (HPC)

NC(=NC(=O)c1ccccc1)N(CCc1ccccc1)CCc1ccccc1
T/C [1]: 104 % of control
T/C [2]: 100 % of control
T/C [3]: 109 % of control

O=C(/C=C/c1ccc(Cl)cc1)c1ccccc1
T/C [4]: 105 % of control
T/C [5]: 103 % of control
T/C [6]: 92 % of control

Cc1ccccc1C(C)(O)c1cnc(C)n1Cc1ccccc1 (stereo not drawn)
T/C (dose: 60.0 mg/kg/injection, schedule: Q01DX005 (ip), vehicle: Klucel (hydroxypropylcellulose) (HPC)): 111 % of control
T/C (dose: 120.0 mg/kg/injection, schedule: Q01DX005 (ip), vehicle: Klucel (hydroxypropylcellulose) (HPC)): 96 % of control
T/C (dose: 240.0 mg/kg/injection, schedule: Q01DX005 (ip), vehicle: Klucel (hydroxypropylcellulose) (HPC)): 91 % of control

CCOc1ccc2c(=O)c(C(=O)O)c[nH]c2c1
T/C [7]: 107 % of control
T/C [8]: 107 % of control
T/C [9]: 108 % of control

O=C([O-])c1ccccc1[O-].[Cu+2].c1ccc(-c2ccccn2)nc1
T/C [10]: 104 % of control
T/C [11]: 113 % of control

O=C1C=CC2=Cc3ccccc3CN12
T/C [1]: 100 % of control
T/C [2]: 100 % of control
T/C [3]: 100 % of control

Clc1ccc2nc(CBr)cnc2c1
T/C (dose: 6.25 mg/kg/injection, schedule: Q01DX009 (ip), vehicle: saline with Tween-80): 104 % of control
T/C (dose: 12.5 mg/kg/injection, schedule: Q01DX009 (ip), vehicle: saline with Tween-80): 104 % of control
T/C [12]: 100 % of control

O=C1C(S(=O)(=O)O)=CC(=Nc2ccc(O)cc2)c2ccccc21
T/C [13]: 95 % of control
T/C [14]: 107 % of control
T/C [15]: 102 % of control

N#CC(NCc1ccccc1)c1ccc2c(c1)OCO2 (stereo not drawn)
T/C [12]: 90 % of control

COn1nnc2ccc(N)cc21
T/C (dose: 100.0 mg/kg/injection, schedule: Q04DX002 (ip), vehicle: saline): 99 % of control
T/C (dose: 200.0 mg/kg/injection, schedule: Q04DX002 (ip), vehicle: saline): 102 % of control

O=C(NC(C(=O)O)C1CC(Cl)=NO1)OCc1ccc([N+](=O)[O-])cc1 (stereo not drawn)
T/C (dose: 6.2 mg/kg/injection, schedule: Q04DX003 (ip), vehicle: other): 108 % of control
T/C (dose: 12.5 mg/kg/injection, schedule: Q04DX003 (ip), vehicle: other): 117 % of control

Cc1sc(N=Nc2ccc(N(C)C)cc2)[n+]([O-])c1C
T/C [16]: 111 % of control
T/C [17]: 102 % of control
T/C [18]: 104 % of control

Cc1cc(O)c(C(=O)O)c2c1CCC(C1(C)CO1)C2 (stereo not drawn)
T/C (dose: 1.56 mg/kg/injection, schedule: Q01DX005 (ip), vehicle: Klucel (hydroxypropylcellulose) (HPC)): 100 % of control
T/C (dose: 3.12 mg/kg/injection, schedule: Q01DX005 (ip), vehicle: Klucel (hydroxypropylcellulose) (HPC)): 101 % of control
T/C [10]: 100 % of control
T/C [11]: 105 % of control
T/C (dose: 25.0 mg/kg/injection, schedule: Q01DX005 (ip), vehicle: Klucel (hydroxypropylcellulose) (HPC)): 107 % of control

BrC1CC(Br)c2c1c1c(c3c2C(Br)CC3Br)C(Br)CC1Br (stereo not drawn)
T/C [5]: 150 % of control
T/C [6]: 156 % of control

COc1cccc2c1C(=O)c1c(O)c3c(c(O)c1C2=O)C[C@@](O)(C(C)=O)C[C@@H]3OC1CC(NC(C)=O)C(O)C(C)O1 (stereo partly drawn)
T/C (dose: 2.0 mg/kg/injection, schedule: Q01DX009 (ip), vehicle: saline): 113 % of control
T/C (dose: 3.13 mg/kg/injection, schedule: Q01DX009 (ip), vehicle: saline): 157 % of control
T/C [19]: 109 % of control
T/C (dose: 12.5 mg/kg/injection, schedule: Q01DX009 (ip), vehicle: saline): 166 % of control

Cc1ccc(Cl)cc1S(=O)(=O)Cl
T/C (dose: 12.5 mg/kg/injection, schedule: Q01DX009 (ip), vehicle: distilled water + Tween-80): 100 % of control
T/C (dose: 25.0 mg/kg/injection, schedule: Q01DX009 (ip), vehicle: distilled water + Tween-80): 110 % of control

Cn1ccn(CCCCCCn2ccn(C)c2=S)c1=S
T/C (dose: 3.12 mg/kg/injection, schedule: Q01DX009 (ip), vehicle: saline): 103 % of control
T/C [19]: 96 % of control
T/C (dose: 12.5 mg/kg/injection, schedule: Q01DX009 (ip), vehicle: suspension in saline): 92 % of control

Clc1ccccc1N=NN1CCN(c2ccccc2)CC1
T/C [4]: 88 % of control
T/C [5]: 102 % of control
T/C [6]: 93 % of control

CCCCN(CCCC)C(=O)C(C)OC(C)=O (stereo not drawn)
T/C (dose: 25.0 mg/kg/injection, schedule: Q01DX005 (ip), vehicle: saline): 95 % of control
T/C [20]: 95 % of control
T/C [21]: 108 % of control
T/C (dose: 200.0 mg/kg/injection, schedule: Q01DX005 (ip), vehicle: saline): 105 % of control

COC(=O)CNC(=O)C(NC(=O)C1CCCN1C(=O)OCc1ccccc1)C(C)C (stereo not drawn) (Cbz-Pro-Val-Gly-OMe; configuration not given here)
T/C [13]: 105 % of control
T/C [14]: 100 % of control
T/C [15]: 100 % of control

CN1CCOC(c2ccccc2)c2ccsc2CC1 (stereo not drawn)
T/C [1]: 98 % of control
T/C [2]: 93 % of control

C/C=c1/[nH]c(=O)/c(=C\c2ccccc2)[nH]c1=O
T/C [22]: 89 % of control
T/C [16]: 91 % of control
T/C [17]: 89 % of control

O=c1c(N=Nc2ccc(S(=O)(=O)Nc3nccs3)cc2)c(O)n(-c2ccccc2)n1-c1ccccc1
T/C (dose: 12.5 mg/kg/injection, schedule: Q01DX009 (ip), vehicle: Klucel (hydroxypropylcellulose) (HPC)): 88 % of control
T/C [22]: 87 % of control and 93 % of control
T/C [16]: 90 % of control and 91 % of control and 92 % of control

COC(=O)C1=C(C(=O)OC)P2(c3ccccc3)(c3ccccc3)S/C(=N\P(C)(C)=S)N2C1(c1ccccc1)c1ccccc1
T/C (dose: 50.0 mg/kg/injection, schedule: Q01DX005 (ip), vehicle: Klucel (hydroxypropylcellulose) (HPC)): 98 % of control
T/C (dose: 100.0 mg/kg/injection, schedule: Q01DX005 (ip), vehicle: Klucel (hydroxypropylcellulose) (HPC)): 88 % of control
T/C (dose: 200.0 mg/kg/injection, schedule: Q01DX005 (ip), vehicle: Klucel (hydroxypropylcellulose) (HPC)): 92 % of control

CS(=O)(=O)Oc1ccc([N+](=O)[O-])cc1
T/C [16]: 98 % of control
T/C [17]: 107 % of control
T/C [18]: 114 % of control

N=C(N)c1ccc(NC(=O)c2cc3ccc(C(=N)N)cc3o2)cc1
T/C (dose: 12.5 mg/kg/injection, schedule: Q04DX003 (ip), vehicle: saline): 101 % of control
T/C (dose: 25.0 mg/kg/injection, schedule: Q04DX003 (ip), vehicle: saline): 101 % of control
T/C (dose: 50.0 mg/kg/injection, schedule: Q04DX003 (ip), vehicle: saline): 102 % of control

COc1ccc2c(c1N)CC[C@@H]1C2CC[C@]2(C)C(O)CCC12 (stereo partly drawn)
T/C [13]: 104 % of control
T/C [14]: 96 % of control
T/C [15]: 91 % of control

CC1NC(=O)NC(=O)C1(Cl)Cl (stereo not drawn)
T/C [7]: 101 % of control
T/C [8]: 99 % of control and 109 % of control
T/C [9]: 100 % of control and 109 % of control

COc1cc(CC(OC)OC)no1
T/C [1]: 102 % of control
T/C [2]: 103 % of control
T/C [3]: 102 % of control

CCN(CC)CCOCCOC1CC2CCC1(C)C2(C)C (stereo not drawn)
T/C [20]: 99 % of control
T/C [21]: 96 % of control

O=C(NC(Cc1ccccc1)C(=O)NC(CO)C(=O)O)OCc1ccccc1 (stereo not drawn) (Cbz-Phe-Ser-OH; configuration not given here)
T/C [13]: 100 % of control
T/C [14]: 100 % of control
T/C [15]: 98 % of control
